Test results from PubChem BioAssay AID248 (DTP/NCI, 2004).
Values joined by “and” are separate entries in the source; they are usually repeats but may differ in a detail not shown here. Identical values can stand only once. Toxic doses and inconclusive results are not listed. Rule as the data show it: active = T/C of 150% or more; inactive = T/C below 125%.

System: L1210 leukemia ip in BDF1 mice, survival T/C
Experiment: NCI In Vivo Anticancer Drug Screen. Data for tumor model L1210 Leukemia (intraperitoneal) in B6D2F1 (BDF1) mice
Conditions: endpoint: mean survival time, higher = longer survival
In short: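 Each compound was tested against a transplantable tumor grown in mice. The endpoint was survival, with treated animals benchmarked against vehicle controls as a simple ratio.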

[1] = dose: 100.0 mg/kg/injection, schedule: Q04DX003 (ip), vehicle: Klucel (hydroxypropylcellulose) (HPC)
[2] = dose: 200.0 mg/kg/injection, schedule: Q04DX003 (ip), vehicle: Klucel (hydroxypropylcellulose) (HPC)
[3] = dose: 400.0 mg/kg/injection, schedule: Q04DX003 (ip), vehicle: Klucel (hydroxypropylcellulose) (HPC)
[4] = dose: 100.0 mg/kg/injection, schedule: Q01DX009 (ip), vehicle: saline
[5] = dose: 200.0 mg/kg/injection, schedule: Q01DX009 (ip), vehicle: saline

Measured: T/C

Cc1c(C)c(O)c(SC(CC(=O)O)C(=O)O)c(C)c1O (stereo unspecified)
inactive: dose: 100.0 mg/kg/injection, schedule: Q04DX002 (ip), vehicle: Klucel (hydroxypropylcellulose) (HPC) 100 % of control | [1] 103 % of control | dose: 200.0 mg/kg/injection, schedule: Q04DX002 (ip), vehicle: Klucel (hydroxypropylcellulose) (HPC) 103 % of control | [2] 103 % of control | dose: 400.0 mg/kg/injection, schedule: Q04DX002 (ip), vehicle: Klucel (hydroxypropylcellulose) (HPC) 97 % of control | [3] 90 % of control

CCN1CCCC(Nc2cc(C)nc(/N=C(\N)Nc3ccc(Cl)c(Cl)c3)n2)C1 (stereo unspecified)
inactive: dose: 75.0 mg/kg/injection, schedule: Q01DX001 (ip), vehicle: saline 92 % of control

Nc1ccc(-c2ccc(Nc3cc(S(=O)(=O)O)c(N)c4c3C(=O)c3ccccc3C4=O)cc2)c(S(=O)(=O)O)c1
inactive: dose: 10.0 mg/kg/injection, schedule: Q01DX001 (ip), vehicle: acetone 96 % of control | dose: 20.0 mg/kg/injection, schedule: Q01DX001 (ip), vehicle: acetone 89 % of control | dose: 40.0 mg/kg/injection, schedule: Q01DX001 (ip), vehicle: acetone 100 % of control

Nc1ncnc2c1ncn2C1OC(CO)C(O)C1O (stereo unspecified)
inactive: dose: 6.25 mg/kg/injection, schedule: Q01DX009 (ip), vehicle: Klucel (hydroxypropylcellulose) (HPC) 115 % of control | dose: 7.8 mg/kg/injection, schedule: Q#A X012 (ip), vehicle: methylcellulose (MC) 102 % of control and 109 % of control | dose: 12.5 mg/kg/injection, schedule: Q01DX009 (ip), vehicle: Klucel (hydroxypropylcellulose) (HPC) 112 % of control | dose: 12.5 mg/kg/injection, schedule: Q04DX002 (ip), vehicle: Klucel (hydroxypropylcellulose) (HPC) 100 % of control | dose: 13.0 mg/kg/injection, schedule: Q#A X012 (ip), vehicle: methylcellulose (MC) 103 % of control and 109 % of control | dose: 22.0 mg/kg/injection, schedule: Q#A X012 (ip), vehicle: methylcellulose (MC) 102 % of control and 110 % of control | dose: 25.0 mg/kg/injection, schedule: Q01DX001 (ip), vehicle: saline 103 % of control | dose: 25.0 mg/kg/injection, schedule: Q01DX009 (ip), vehicle: Klucel (hydroxypropylcellulose) (HPC) 100 % of control and 108 % of control | dose: 25.0 mg/kg/injection, schedule: Q04DX002 (ip), vehicle: Klucel (hydroxypropylcellulose) (HPC) 107 % of control | dose: 25.0 mg/kg/injection, schedule: Q04DX003 (ip), vehicle: saline 105 % of control | dose: 36.0 mg/kg/injection, schedule: Q#A X012 (ip), vehicle: methylcellulose (MC) 106 % of control and 108 % of control | dose: 50.0 mg/kg/injection, schedule: Q01DX001 (ip), vehicle: saline 100 % of control | dose: 50.0 mg/kg/injection, schedule: Q01DX009 (ip), vehicle: Klucel (hydroxypropylcellulose) (HPC) 101 % of control and 107 % of control | dose: 50.0 mg/kg/injection, schedule: Q04DX002 (ip), vehicle: Klucel (hydroxypropylcellulose) (HPC) 97 % of control | dose: 50.0 mg/kg/injection, schedule: Q04DX003 (ip), vehicle: saline 116 % of control | dose: 60.0 mg/kg/injection, schedule: Q#A X012 (ip), vehicle: methylcellulose (MC) 106 % of control | dose: 100.0 mg/kg/injection, schedule: Q01DX001 (ip), vehicle: carboxymethylcellulose (CMC) 100 % of control | dose: 100.0 mg/kg/injection, schedule: Q01DX001 (ip), vehicle: saline 100 % of control and 110 % of control | dose: 100.0 mg/kg/injection, schedule: Q01DX005 (ip), vehicle: saline 106 % of control and 95 % of control and 92 % of control | dose: 100.0 mg/kg/injection, schedule: Q01DX009 (ip), vehicle: Klucel (hydroxypropylcellulose) (HPC) 103 % of control | [4] 94 % of control | dose: 100.0 mg/kg/injection, schedule: Q04DX003 (ip), vehicle: saline 104 % of control and 112 % of control | dose: 118.0 mg/kg/injection, schedule: Q01DX005 (ip), vehicle: water 112 % of control | dose: 118.0 mg/kg/injection, schedule: Q01DX009 (ip), vehicle: water 112 % of control | dose: 150.0 mg/kg/injection, schedule: Q01DX009 (ip), vehicle: saline 105 % of control | dose: 177.0 mg/kg/injection, schedule: Q01DX005 (ip), vehicle: water 114 % of control | dose: 177.0 mg/kg/injection, schedule: Q01DX009 (ip), vehicle: saline with Tween-80 120 % of control | dose: 177.0 mg/kg/injection, schedule: Q01DX009 (ip), vehicle: water 111 % of control | dose: 200.0 mg/kg/injection, schedule: Q01DX001 (ip), vehicle: carboxymethylcellulose (CMC) 100 % of control and 107 % of control | dose: 200.0 mg/kg/injection, schedule: Q01DX005 (ip), vehicle: saline 95 % of control and 101 % of control and 87 % of control | dose: 200.0 mg/kg/injection, schedule: Q01DX009 (ip), vehicle: Klucel (hydroxypropylcellulose) (HPC) 97 % of control | dose: 200.0 mg/kg/injection, schedule: Q01DX009 (ip), vehicle: carboxymethylcellulose (CMC) 114 % of control | [5] 102 % of control | dose: 200.0 mg/kg/injection, schedule: Q04DX003 (ip), vehicle: saline 94 % of control | dose: 266.0 mg/kg/injection, schedule: Q01DX005 (ip), vehicle: water 115 % of control | dose: 266.0 mg/kg/injection, schedule: Q01DX009 (ip), vehicle: saline with Tween-80 124 % of control | dose: 266.0 mg/kg/injection, schedule: Q01DX009 (ip), vehicle: water 112 % of control | dose: 300.0 mg/kg/injection, schedule: Q01DX009 (ip), vehicle: saline 102 % of control | dose: 400.0 mg/kg/injection, schedule: Q01DX001 (ip), vehicle: carboxymethylcellulose (CMC) 106 % of control and 109 % of control | dose: 400.0 mg/kg/injection, schedule: Q01DX005 (ip), vehicle: water 112 % of control | dose: 400.0 mg/kg/injection, schedule: Q01DX009 (ip), vehicle: Klucel (hydroxypropylcellulose) (HPC) 116 % of control | dose: 400.0 mg/kg/injection, schedule: Q01DX009 (ip), vehicle: saline 107 % of control | dose: 400.0 mg/kg/injection, schedule: Q01DX009 (ip), vehicle: water 117 % of control | dose: 400.0 mg/kg/injection, schedule: Q04DX003 (ip), vehicle: saline 88 % of control | dose: 500.0 mg/kg/injection, schedule: Q03HX024 (ip), vehicle: saline with Tween-80 124 % of control | dose: 600.0 mg/kg/injection, schedule: Q01DX005 (ip), vehicle: water 110 % of control | dose: 600.0 mg/kg/injection, schedule: Q01DX009 (ip), vehicle: saline 109 % of control | dose: 600.0 mg/kg/injection, schedule: Q01DX009 (ip), vehicle: water 119 % of control | dose: 600.0 mg/kg/injection, schedule: Q03HX024 (ip), vehicle: saline with Tween-80 113 % of control | dose: 800.0 mg/kg/injection, schedule: Q01DX001 (ip), vehicle: carboxymethylcellulose (CMC) 107 % of control | dose: 800.0 mg/kg/injection, schedule: Q01DX009 (ip), vehicle: Klucel (hydroxypropylcellulose) (HPC) 103 % of control | dose: 800.0 mg/kg/injection, schedule: Q01DX009 (ip), vehicle: carboxymethylcellulose (CMC) 122 % of control | dose: 900.0 mg/kg/injection, schedule: Q01DX005 (ip), vehicle: water 115 % of control | dose: 900.0 mg/kg/injection, schedule: Q01DX009 (ip), vehicle: water 122 % of control | dose: 1000.0 mg/kg/injection, schedule: Q01DX009 (ip), vehicle: carboxymethylcellulose (CMC) 112 % of control | dose: 1200.0 mg/kg/injection, schedule: Q01DX009 (ip), vehicle: carboxymethylcellulose (CMC) 118 % of control | dose: 1600.0 mg/kg/injection, schedule: Q01DX001 (ip), vehicle: carboxymethylcellulose (CMC) 112 % of control

O=C(COc1ccc(Cl)c(Cl)c1)NCc1ccc([N+](=O)[O-])cc1
inactive: [1] 90 % of control | [2] 92 % of control | [3] 88 % of control

CCN(CC)CCOC(=O)c1cccc(N)c1
inactive: dose: 50.0 mg/kg/injection, schedule: Q01DX009 (ip), vehicle: saline 92 % of control | [4] 111 % of control | [5] 103 % of control

CCC[CH2][Sn]1([CH2]CCC)[O]OC(c2ccc(OC)cc2)[O]1 (stereo unspecified)
inactive: dose: 6.25 mg/kg/injection, schedule: Q01DX005 (sc), vehicle: olive oil, sesame oil, peanut oil 95 % of control | dose: 6.25 mg/kg/injection, schedule: Q01DX009 (sc), vehicle: olive oil, sesame oil, peanut oil 104 % of control and 88 % of control | dose: 12.5 mg/kg/injection, schedule: Q01DX005 (sc), vehicle: olive oil, sesame oil, peanut oil 106 % of control | dose: 12.5 mg/kg/injection, schedule: Q01DX009 (sc), vehicle: olive oil, sesame oil, peanut oil 104 % of control and 91 % of control | dose: 25.0 mg/kg/injection, schedule: Q01DX005 (sc), vehicle: olive oil, sesame oil, peanut oil 95 % of control | dose: 25.0 mg/kg/injection, schedule: Q04DX002 (sc), vehicle: olive oil, sesame oil, peanut oil 97 % of control | dose: 50.0 mg/kg/injection, schedule: Q04DX002 (sc), vehicle: olive oil, sesame oil, peanut oil 106 % of control | dose: 100.0 mg/kg/injection, schedule: Q04DX002 (sc), vehicle: olive oil, sesame oil, peanut oil 100 % of control
